Key:
24-hydroxylase mRNA = 24-hydroxylase mRNA expression in CL-8 cells; type: cell-based; conditions: 1α,25-dihydroxyvitamin D3 10^−9 M, 5 hours (FIG. 4)
Experimental: CL-8 cells were grown as above and the peptide of SEQ ID NO.1 was either not added to the cells, or added to the cells at a concentration of either 100 or 500 ng/ml. Cells were grown for a further 5 hours, and RNA was harvested using methods described above and expression levels of 24-hydroxylase were determined in each sample using methods described above. […]

1α-hydroxylase mRNA = 1α-hydroxylase mRNA expression in CL-8 cells (real-time quantitative PCR); type: cell-based, human
Experimental: Cell culture, RNA preparation and cDNA synthesis: CL-8 cells (1.6×10^6 cells) were placed in 60 mm culture dish, and cultured for 48 hours in 5% FCS D-MEM/HamF-12(1:1) medium. This medium was exchanged to FCS free, 0.5 mM Ca defined medium [D-MEM/HamF-12 (13:87), Insulin 5 μg/ml, Transferrin 5 μg/ml, Na2SeO3 5 ng/ml, T3 0.37 nM, EGF 2.5 ng/ml, Hydrocortisone 1 nM]. After 24 hours, the peptide of SEQ ID NO.1 (100 ng/ml or 500 ng/ml) or PTH 100 nM were added and cultured for 5 hours. After treatment, the total cellular contents of each well were used for RNA extraction and reverse transcription (RT). RNA was isolated using ISOGEN (Nippon Gene, Japan) according to the manufacturer's protocol. The purified RNA was redissolved in 10 μl RNase-free water and used for cDNA synthesis by RT. The RT was performed in a 20 μl reaction mixture containing 10 mM Tris buffer, pH8.3, 50 mM KCl, 5 mM MgCl2, 1 mM each of dATP, dGTP, dCTP and dTTP, 20 U of RNase inhibitor, 1 μM Reverse primer and 5 U of AMV reverse transcriptase. The reaction mixture was incubated at 30° C. for 10 min, 55° C. for 15 min, 95° C. for 5 min followed by 5° C. for 5 min.
Real-time quantitative PCR: mRNA was quantitated for human 1α-OHase gene and β-actin. Theses gene were amplified using primers of oligo synthesis DNA (Takara, Japan). […] Quantitation of mRNA was performed using Applied Biosystems GeneAmp 5700 sequence detection system with SYBR Green methods.
In order to study the effect of the peptide of SEQ ID No. 1 on the regulation of 1α-hydoxylase mRNA expression, CL-8 cells were grown with and without the peptide of SEQ ID No. 1 and the effects of the peptide on 1α-hydroxylase were quantified. […]
PTH and the peptide of SEQ ID NO.1 induce the expression of 1α-hydroxylase mRNA. […] Cells were grown for a further 5 hours, and RNA was harvested and expression levels of 1α-hydroxylase were determined in each sample using standard Northern blotting or RT-PCR procedures.

Q: How did the “levels of 24-hydroxylase mRNA” value (24-hydroxylase mRNA) turn out when C=C1/C(=C\C=C2/CCC[C@]3(C)[C@@H]([C@H](C)CCCC(C)(C)O)CC[C@@H]23)C[C@@H](O)C[C@@H]1O [1α,25-dihydroxyvitamin D3] was run?
A: The value was “significant increase”.

Q: Which results are given for O=S(=O)(NCCNC/C=C/c1ccc(Br)cc1)c1cccc2cnccc12 [H-89]?
A: effect of H-89 on the inducing effects of PTH on 1α-hydroxylase mRNA expression (1α-hydroxylase mRNA; H-89 10 uM with PTH 100 nmol, 5 hours (FIG. 2)): inhibited; effect of H-89 on the stimulatory effects of the peptide of SEQ ID NO.1 on 1α-hydroxylase mRNA expression (1α-hydroxylase mRNA; H-89 10 uM with peptide 100 or 500 ng/ml, 5 hours): did not inhibit

B1: parathyroid hormone (peptide, UniProt P01270 32-115, looked up)
Parathyroid hormone: SVSEIQLMHNLGKHLNSMERVEWLRKKLQDVHNFVALGAPLAPRDAGSQRPRKKEDNVLVESHEKSLGEADKADVNVLTKAKSQ
modifications: Parathyroid hormone
notes: parathyroid hormone, comparator inducer of 1α-hydroxylase mRNA acting via a PKA-dependent pathway
Q: How did the “induction of the expression of 1α-hydroxylase mRNA” value (1α-hydroxylase mRNA) turn out when B1 was run?
A: Its value is “induce”.
